The results in this text go back to patent US6177438A, “Morphinan derivatives and pharmaceutical use thereof” (priority 1993, dated 2001).

Counter-ions that a name gives are not always drawn.

The test system of one test is acetic acid-induced writhing in ddy mice. Nature of the test: animal or person. The format is in vivo, 5 week old ddy mice. As to conditions: Mus musculus, sc, s.c. 15 minutes before acetic acid, read-out: ED50. The protocol:
5 week old ddy mice were used in this test. After intraperitoneal administration of 0.1 ml of 0.6% aqueous acetic acid per 10 g of body weight, the number of writhing reactions that occurred in 10 minutes starting 10 minutes after administration was evaluated for the indicator. The test drug was administered subcutaneously into the backs of the animals 15 minutes before administration of acetic acid.
Consider `CN(C(=O)/C=C/c1cccnc1)[C@@H]1CC[C@@]2(O)[C@H]3Cc4ccc(O)c5c4[C@@]2(CCN3CC2CC2)[C@H]1O5.O=C(O)C(O)C(O)C(=O)O` (relative stereo) [Compound 153, 17-cyclopropylmethyl-3,14β-dihydroxy-4,5α-epoxy-6β-[N-methyl-trans-3-(3-pyridyl)acrylamido]morphinan tartrate], for which the ED50 is 0.13 mg/kg. On the same count and under the same terms, to `Br.CN(C(=O)/C=C/c1cc(Br)cs1)[C@@H]1CC[C@@]2(O)[C@H]3Cc4ccc(O)c5c4[C@@]2(CCN3CC2CC2)[C@H]1O5` (relative stereo) [Compound 157, 17-cyclopropylmethyl-3,14β-dihydroxy-4,5α-epoxy-6β-[N-methyl-trans-3-(4-bromo-2-thienyl)acrylamido]morphinan hydrobromide] belongs 0.003 mg/kg; to `Cc1ccc(/C=C/C(=O)N(C)[C@@H]2CC[C@@]3(O)[C@H]4Cc5ccc(O)c6c5[C@@]3(CCN4CC3CC3)[C@H]2O6)o1.Cl` (relative stereo) [Compound 158, 17-cyclopropylmethyl-3,14β-dihydroxy-4,5α-epoxy-6β-[N-methyl-trans-3-(5-methyl-2-furyl)acrylamido]morphinan hydrochloride], 0.0071 mg/kg; to `Cc1occc1/C=C/C(=O)N(C)[C@@H]1CC[C@@]2(O)[C@H]3Cc4ccc(O)c5c4[C@@]2(CCN3CC2CC2)[C@H]1O5.Cl` (relative stereo) [Compound 159, 17-cyclopropylmethyl-3,14β-dihydroxy-4,5α-epoxy-6β-[N-methyl-trans-3-(2-methyl-3-furyl)acrylamido]morphinan hydrochloride], 0.0032 mg/kg.

Consider `CCCCN1CC[C@]23c4c5ccc(O)c4O[C@H]2[C@H](N(C)C(=O)/C=C/c2ccoc2)CC[C@@]3(O)[C@H]1C5.O=C(O)C(O)C(O)C(=O)O` (relative stereo) [Compound 163, 17-butyl-3,14β-dihydroxy-4,5α-epoxy-6β-[N-methyl-trans-3-(3-furyl)acrylamido]morphinan tartrate], for which the ED50 amounted to 0.37 mg/kg.

For the compound `CN(C(=O)/C=C\c1ccoc1)[C@@H]1CC[C@@]2(O)[C@H]3Cc4ccc(O)c5c4[C@@]2(CCN3CC2CC2)[C@H]1O5.O=C(O)C(O)C(O)C(=O)O` (relative stereo) [Compound 174, 17-cyclopropylmethyl-3,14β-dihydroxy-4,5α-epoxy-6β-[N-methyl-cis-3-(3-furyl)acrylamido]morphinan tartrate], the ED50 amounted to 0.16 mg/kg. For `CN(C(=O)Cc1cccc(Br)c1)[C@H]1CC[C@@]2(O)[C@H]3Cc4ccc(O)c5c4[C@@]2(CCN3CC2CC2)[C@H]1O5` [Compound 26, 17-cyclopropylmethyl-3,14β-dihydroxy-4,5α-epoxy-6α-(N-methyl-3-bromophenylacetamido)morphinan.cndot.hydrobromate], the ED50 came to 0.099 mg/kg. `CO[C@H](C(=O)N(C)[C@H]1CC[C@@]2(O)[C@H]3Cc4ccc(O)c5c4[C@@]2(CCN3CC2CC2)[C@H]1O5)c1ccccc1` [Compound 31, 17-cyclopropylmethyl-3,14β-dihydroxy-4,5α-epoxy-6α-[(S)-N-methylmethoxyphenylacetamido]morphinan.cndot.hydrochloride]: the ED50 was 0.75 mg/kg. As to `CN(C(=O)CCc1cccnc1)[C@H]1CC[C@@]2(O)[C@H]3Cc4ccc(O)c5c4[C@@]2(CCN3CC2CC2)[C@H]1O5` [Compound 41, 17-cyclopropylmethyl-3,14β-dihydroxy-4,5α-epoxy-6α-[N-methyl-3-(3-pyridyl)propionamido]morphinan.cndot.tartrate], the ED50 amounted to 0.39 mg/kg. As for `CN(C(=O)OCc1cccnc1)[C@H]1CC[C@@]2(O)[C@H]3Cc4ccc(O)c5c4[C@@]2(CCN3CC2CC2)[C@H]1O5` [Compound 44, 17-cyclopropylmethyl-4,5α-epoxy-3,14β-dihydroxy-6α-[N-methyl-(3-pyridyl)methyloxycarbamido]morphinan.cndot.tartrate], the ED50 is 0.084 mg/kg. The same measure, in the same setting: to `CN(C(=O)CCC1CCCC1)[C@H]1CC[C@@]2(O)[C@H]3Cc4ccc(O)c5c4[C@@]2(CCN3CC2CC2)[C@H]1O5` [Compound 48, 17-cyclopropylmethyl-4,5α-epoxy-3,14β-dihydroxy-6α-(N-methyl-3-cyclopentylpropionamido)morphinan.cndot.tartrate] belongs 0.019 mg/kg; to `COCCOC(=O)N(C)[C@H]1CC[C@@]2(O)[C@H]3Cc4ccc(O)c5c4[C@@]2(CCN3CC2CC2)[C@H]1O5` [Compound 49, 17-cyclopropylmethyl-4,5α-epoxy-3,14β-dihydroxy-6α-(N-methyl-2-methoxyethoxycarbamido)morphinan.cndot.tartrate], 0.026 mg/kg; to `CCN(C(=O)Cc1ccc(Cl)c(Cl)c1)[C@@H]1CC[C@@]2(O)[C@H]3Cc4ccc(O)c5c4[C@@]2(CCN3CC2CC2)[C@H]1O5` [Compound 54, 17-cyclopropylmethyl-4,5α-epoxy-3,14β-dihydroxy-6β-(N-ethyl-3,4-dichlorophenylacetoamido)morphinan.cndot.hydrochloride], 0.72 mg/kg. `CN(C(=O)Cc1ccccc1)[C@@H]1CC[C@@]2(O)[C@H]3Cc4ccc(O)c5c4[C@@]2(CCN3CC2CC2)[C@H]1O5` [Compound 55, 17-cyclopropylmethyl-3,14β-dihydroxy-4,5α-epoxy-6β-(N-methylphenylacetamido)morphinan.cndot.hydrochloride]: the ED50 came to 0.98 mg/kg.

Take `CN(C(=O)CCC1CCCC1)[C@@H]1CC[C@@]2(O)[C@H]3Cc4ccc(O)c5c4[C@@]2(CCN3CC2CC2)[C@H]1O5` [Compound 64, 17-cyclopropylmethyl-3,14β-dihydroxy-4,5α-epoxy-6β-(N-methyl-3-cyclopentylpropionamido)morphinan.cndot.tartrate]: the ED50 was 0.097 mg/kg. Turning to `COCCOC(=O)N(C)[C@@H]1CC[C@@]2(O)[C@H]3Cc4ccc(O)c5c4[C@@]2(CCN3CC2CC2)[C@H]1O5` [Compound 67, 17-cyclopropylmethyl-3,14β-dihydroxy-4,5α-epoxy-6β-(N-methyl-2-methoxyethoxycarbamido)morphinan.cndot.tartrate], the ED50 turned out to be 0.36 mg/kg. Take `CN(C(=O)/C=C/c1ccsc1)[C@@H]1CC[C@@]2(O)[C@H]3Cc4ccc(O)c5c4[C@@]2(CCN3CC2CC2)[C@H]1O5` [Compound 71, 17-cyclopropylmethyl-3,14β-dihydroxy-4,5α-epoxy-6β-[N-methyl-trans-3-(3-thienyl)acrylamido]morphinan.cndot.methanesulfonate]: the ED50 was 0.0042 mg/kg. As for `CN(C(=O)/C=C/c1ccccc1C(F)(F)F)[C@@H]1CC[C@@]2(O)[C@H]3Cc4ccc(O)c5c4[C@@]2(CCN3CC2CC2)[C@H]1O5` [Compound 72, 17-cyclopropylmethyl-3,14β-dihydroxy-4,5α-epoxy-6β-(N-methyl-2-trifluoromethylcinnamamido)morphinan.cndot.hydrochloride], the ED50 was determined as 0.18 mg/kg.

The test is the same for the next values; noted with them: s.c. 15 minutes before acetic acid.
Take `Cc1ccc(/C=C/C(=O)N(C)[C@@H]2CC[C@@]3(O)[C@H]4Cc5ccc(O)c6c5[C@@]3(CCN4CC3CC3)[C@H]2O6)s1.O=C(O)C(O)C(O)C(=O)O` (relative stereo) [Compound 160, 17-cyclopropylmethyl-3,14β-dihydroxy-4,5α-epoxy-6β-[N-methyl-trans-3-(5-methyl-2-thienyl)acrylamido]morphinan tartrate]: the ED50 is 0.0027 mg/kg.

The term ED50 denotes the dose at which the effect has come halfway, by size or by number of responders.
